# From patent US7759349B2, “Control of parasites in animals by the use of imidazo[1,2-b]pyridazine derivatives” (Schering-Plough Animal Health Corporation, priority 2003, dated 2010)
# Test system: Haemonchus contortus
# Test: Haemonchus contortus larvacidal assay: NemaTOX H. contortus dose response (larval development, eggs to L3)
# Format: cell-based
# Settings: Haemonchus contortus, 144 h; Table 3; concentration required to inhibit development in 99% of the nematode larvae; eggs on agar to L3 stage (6 days); two-fold dilutions, 0.024 to 50 μg/ml; read-out: LD99
# Procedure: Haemonchus Contortus Larvacidal Assay: NemaTOX H.contortus Dose Response (00/0510)
# Effect on larval development is determined in the assay described by Gill et al. (International Journal of Parasitology, 1995, 25, 463-470). Briefly, in this assay nematode eggs were applied to the surface of an agar matrix containing the test compound and then allowed to develop through to the L3, infective stage (6 days)
# The wells for each dilution of every compound (from highest to lowest concentration) were inspected to determine the well number corresponding to the lowest concentration at which development was inhibited in 99% of the nematode larvae present. As the well numbers correspond to a two-fold serial dilution of each compound, a titre (dilution factor) is generated as 2^n-1, where n is the well number. By dividing the highest concentration tested by the titre an LD99 value can be obtained, representing the concentration required to inhibit development in 99% of the nematode larvae present.
# The compounds supplied as solid and viscous liquids were dissolved in DMSO. Twelve serial 1/2 dilutions in DMSO solution were prepared from the stock solution, each of which was then diluted 1/5 with water. Aliquots (10 μl) of each dilution were transferred to the bioassay plates to give a final concentration range of 0.024 to 50 μg/ml.
# In Tables 1, 2 and 3 the Haemonchus contortus LD99 values for compounds in accordance with the present invention are listed, measured in micrograms/mL.
row,Compound,IC99 [µg/mL]
1,"CCCOc1ccc2nc3c(n2n1)CCc1cc(OC)ccc1-3 [Compound 121, 3-Methoxy-8-propoxy-5,6-dihydro-6b,7,11-triaza-benzo[a]fluorene]",0.203
2,"CCCOc1ccc2nc3c(n2n1)Cc1ccccc1-3 [Compound 123, 3-Propoxy-5H-4,4a, 10-triaza-indeno[2,1-a]indene]",0.469

# Same assay, conditions: Table 1; concentration required to inhibit development in 99% of the nematode larvae; eggs on agar to L3 stage (6 days); two-fold dilutions, 0.024 to 50 μg/ml
row,Compound,LD99 [micrograms/mL]
1,CSCc1c(-c2ccc(Cl)cc2)nc2ccc(SC)nn12 [Compound 20],>15.0
2,CCCOc1ccc2nc(-c3ccc(OC)c(Br)c3)c(C)n2n1 [Compound 38],3.75
3,CCOc1ccc(-c2nc3ccc(OCC4CC4)nn3c2Br)cc1 [Compound 39],2.75
4,CCCOc1ccc2nc(-c3ccc(Cl)cc3)cn2n1 [Compound 11],3.75
5,COc1ccc2nc(-c3ccc(C)cc3)cn2n1 [Compound 1],3.75
6,COCCOc1ccc2nc(-c3ccc4c(c3)OCO4)cn2n1 [Compound 25],1.25
7,CCCOc1ccc2nc(-c3ccc(Cl)s3)cn2n1 [Compound 34],0.188
8,COc1ccc(-c2cn3nc(OC)ccc3n2)cc1 [Compound 18],3
9,COc1ccc(-c2cn3nc(OC(C)C)ccc3n2)cc1OC [Compound 58],15
10,COc1cccc(Sc2ccc3nc(-c4ccc5c(c4)OCO5)cn3n2)c1 [Compound 19],>15.0
11,CCOc1ccc(-c2cn3nc(SC(C)C)ccc3n2)cc1 [Compound 50],0.875
12,CCCOc1ccc2nc(-c3ccc(OCC)cc3)cn2n1 [Compound 27],0.1
13,Cc1c(-c2cccs2)nc2ccc(Br)nn12 [Compound 45],6
14,CCc1ccc(-c2cn3nc(OCC4CC4)ccc3n2)cc1 [Compound 56],0.0781
15,CCCSc1ccc2nc(-c3ccccc3)c(OC)n2n1 [Compound 22],>15.0
16,CCCOc1nn2cc(-c3ccc(OCC)cc3)nc2c2ccccc12 [Compound 62],0.625
17,CCCCOc1ccc2nc(-c3ccc(OCCC)cc3)c(CN(C)C)n2n1 [Compound 59],14
18,COc1c(-c2ccccc2)nc2ccc(SC)nn12 [Compound 3],3
19,CCCSc1ccc2nc(-c3ccc4c(c3)OCO4)cn2n1 [Compound 8],0.813
20,CCCSc1ccc2nc(-c3cc(OC)c(OC)c(OC)c3)cn2n1 [Compound 14],>15.0
21,CCOc1ccc(-c2cn3nc(SCc4ccc(OC)cc4)ccc3n2)cc1 [Compound 41],11

# Same assay, conditions: Table 2; concentration required to inhibit development in 99% of the nematode larvae; eggs on agar to L3 stage (6 days); two-fold dilutions, 0.024 to 50 μg/ml
row,Compound,LD99 [micrograms/mL]
1,CCCOc1ccc2nc(-c3cccc(OCCOC)c3)c(C)n2n1 [Compound 94],1.88
2,CCCOc1nn2cc(-c3ccc(OCCOC)cc3)nc2c2ccccc12 [Compound 119],0.344
3,COCCOc1ccc(-c2nc3ccc(-c4ccccc4)nn3c2C)cc1 [Compound 85],1.88
4,CCOCCOc1ccc(-c2cn3nc(OCC4CC4)ccc3n2)cc1 [Compound 117],0.0391
5,COCCOc1ccc(-c2cn3nc(SC(C)C)ccc3n2)cc1 [Compound 109],0.203
6,COCCOc1ccc(-c2nc3ccc(Cl)nn3c2C)cc1 [Compound 87],0.156
7,COCCOc1ccc(-c2nc3ccc(Cl)nn3c2C)cc1Br [Compound 86],3
8,CCCSc1ccc2nc(-c3ccc(OCCOC)c(OC)c3)c(Br)n2n1 [Compound 89],0.75
9,CCCCSc1ccc2nc(-c3ccc(OCCOCC)cc3)cn2n1 [Compound 115],0.219
10,COCCOc1ccc(-c2cn3ncccc3n2)cc1 [Compound 69],15
11,CCCCOc1ccc2nc(-c3ccc(OCCOC)cc3)cn2n1 [Compound 111],0.219
